Test results as given in patent US20130040882A1, “USE OF FIBROBLAST GROWTH FACTOR FRAGMENTS” (NOVARTIS AG, priority 2003, published 2013).
Values joined by “and” are separate entries in the source; they are usually repeats but may differ in a detail not shown here. Identical values can stand only once.

System: transcript levels in tissues (GH/IGF and glucagon/insulin axes, SSTR signalling)
Assay type: in vivo, cynomolgus monkeys
[1] = pituitary, 0.1 mg/animal/14 day, control 72
[2] = pituitary, 0.1 mg/animal/14 day, control 91
[3] = pituitary, 0.1 mg/animal/14 day, control 198
[4] = pituitary, 0.1 mg/animal/14 day, control 225

cyclo[4-(NH2—C2H4—NH—CO—O)Pro-Phg-DTrp-Lys-Tyr(4-Bzl)-Phe] [SOM230]
ATPase, H+/K+ exchanging, beta polypeptide expression ↓ (fold change) (liver): polypeptide ↓ x2 | Adenylyl cyclase-associated protein expression ↑ (fold change) (liver): ↑ x1.5 | Arginine vasopressine receptor 2 expression ↑ (fold change) (liver): receptor 2 ↑ x2.5 | B lymphoid tyrosine kinase expression ↑ (fold change) (liver): ↑ x3.5 | BCL2-like 1 expression ↓ (fold change) (liver): ↓ x3.5 | Bone-derived GF expression ↑ (fold change) (liver): ↑ x3 | Bruton agammaglobulinemia a tyrosine kinase expression ↑ (fold change) (liver): ↑ x1.5 | Butyrate response factor 2 (EGF-response factor 2) expression ↑ (fold change) (liver): x2 | Ca++ channel, voltage-dependent, P/Q type, alpha 1A subunit expression ↓ (fold change) (liver): subunit ↓ x2.5 | Calcium/calmodulin-dependent protein kinase kinase 2, β expression ↑ (fold change) (liver): ↑ x3 | Calmodulin 2 (phosphorylase kinase, δ) expression ↑ (fold change) (liver): kinase, δ) ↑ x2 | Cdk 5, regulatory subunit 1 expression ↑ (fold change) (liver): subunit 1 ↑ x2.5 | Cdk like-2 expression ↓ (fold change) (liver): x2 | Cdki1A (p21/Cip1) expression ↑ (fold change) (liver): (p21/Cip1) ↑ x6 | Cdki 2D (p19, inhibits CDK4) expression ↓ (fold change) (liver): ↓ x2.5 | Corticosteroid binding globulin precursor expression ↑ (fold change) (liver): precursor ↑ x2 | DAG kinase, α (80 kD) expression ↑ (fold change) (liver): (80 kD) ↑ x3 | DAG kinase, δ (130 kD) expression ↑ (fold change) (liver): (130 kD) ↑ x1.5 | Death-associated protein 6 expression ↓ (fold change) (liver): ↓ x2.5 | Dopamine receptor D2 expression ↑ (fold change) (liver): receptor D2 ↑ x3.5 | Dopamine receptor D3 expression ↑ (fold change) (liver): receptor D3 ↑ x2 | EGF (β-urogastrone) expression ↓ (fold change) (liver): urogastrone) ↓ x2.5 | EGF-like repeats and discoidin I-like domains 3 expression ↓ (fold change) (liver): domains 3 ↓ x1.5 | EGFR (avian erythroblastic leukemia viral (v-erb-b) oncogene homolog) expression ↑ (fold change) (liver): homolog) ↑ x2 | FGFR 2 (bacteria-expressed kinase, keratinocyte growth factor receptor, craniofacial dysplasia) expression ↑ (fold change) (liver): dysplasia) ↑ x2 | Fas-activated serine/threonine kinase expression ↑ (fold change) (liver): kinase ↑ x1.5 | Fms-related tyrosine kinase 1(VEGF/vascular permeability factor receptor) expression ↓ (fold change) (liver): receptor) ↓ x1.5 | GABA (A) receptor, γ2 precursor expression ↑ (fold change) (liver): precursor ↑ x4 | GABA(A) receptor-associated protein expression ↑ (fold change) (liver): protein ↑ x1.5 | GCSF expression ↑ (fold change) (liver): GCSF ↑ x3.5 | GFR-bound protein 2 expression ↓ (fold change) (liver): protein 2 ↓ x2.5 | Gene expression (AvgDiff): GR (liver): 80 | Gene expression (AvgDiff): IGF-2 (liver): 269 | Gene expression (AvgDiff): IGFBP2 (liver): 4,476 | Gene expression (AvgDiff): Insulin promoter factor 1, homeodomain transcription factor (liver): 42 | Glucacon receptor expression ↑ (fold change) (liver): ↑ x5 | Glutamate receptor, metabotropic 4 expression ↑ (fold change) (liver): ↑ x1.5 | Glycosylphosphatidylinositol specific phospholipase D1 expression ↓ (fold change) (liver): ↓ x1.5 | Growth differentiation factor 1 expression ↑ (fold change) (liver): 1 ↑ x3 | IFN regulatory factor 5 expression ↑ (fold change) (liver): factor 5 ↑ x2.5 | IFN-induced leucine zipper protein expression ↑ (fold change) (liver): protein ↑ x1.5 | IFN-inducible RNA-dependent protein kinase expression ↑ (fold change) (liver): protein kinase ↑ x4 | IFN-related developmental regulator 2 expression ↓ (fold change) (liver): regulator 2 ↓ x1.5 | IFN-stimulated protein, 15 kDa expression ↓ (fold change) (liver): protein, 15 kDa ↓ x2 | IFNγ responsive transcript expression ↑ (fold change) (liver): transcript ↑ x1.5 | IGF-2 expression ↓ (fold change) (liver): IGF-2 ↓ x2.5 | IGFBP2 expression ↑ (fold change) (liver): IGFBP2 ↑ x2 | IL2 R, γ chain, precursor expression ↑ (fold change) (liver): precursor ↑ x2.5 | IP 5-phosphatase expression ↑ (fold change) (liver): ↑ x2 | Insulin promoter factor 1, homeodomain transcription factor expression ↓ (fold change) (liver): ↓ x1.5 | Natriuretic peptide receptor A/guanylate cyclase A (atrionatriuretic peptide receptor A) expression ↑ (fold change) (liver): ↑ x6 | Nck, Ash and PLC γ binding protein NAP4 expression ↑ (fold change) (liver): NAP4 ↑ x3.5 | PDGF, α polypeptide expression ↑ (fold change) (liver): polypeptide ↑ x1.5 | PDGFR, α polypeptide expression ↑ (fold change) (liver): polypeptide ↑ x2 | PI transfer protein expression ↑ (fold change) (liver): ↑ x3.5 | PI transfer protein, β expression ↓ (fold change) (liver): β ↓ x1.5 | PKC substrate 80K-H expression ↑ (fold change) (liver): 80K-H ↑ x1.5 | PKC, ι expression ↓ (fold change) (liver): PKC, ι ↓ x1.5 | PLA2, group IIA (platelets, synovial fluid) expression ↑ (fold change) (liver): fluid) ↑ x5.5 | PLC, γ1 (formerly subtype 148) expression ↑ (fold change) (liver): subtype 148) ↑ x2 | Rb 1 (including osteosarcoma) expression ↓ (fold change) (liver): ↓ x2 | Rb binding protein expression ↑ (fold change) (liver): ↑ x2.5 | Rb-like 2 (p130) expression ↑ (fold change) (liver): x3 | Receptor (calcitonin) activity modifying protein 1 precursor expression ↑ (fold change) (liver): precursor ↑ x1.5 | Solute carrier family 9 (sodium/hydrogen exchanger), isoform 3 regulatory factor 1 expression ↑ (fold change) (liver): ↑ x11.5 | Solute carrier family 11 (Na+/phosphate symporters), member 1 expression ↑ (fold change) (liver): member 1 ↑ x2.5 | TGF, β1 expression ↓ (fold change) (liver): TGF, β1 ↓ x1.5 | TGFβ activated kinase-binding protein 1 expression ↑ (fold change) (liver): protein 1 ↑ x2.5 | TGFβR III (betaglycan, 300kδ) expression ↓ (fold change) (liver): ↓ x2 | THR interacting protein 15 expression ↑ (fold change) (liver): protein 15 ↑ x1.5 | THR sulfo transferase expression ↑ (fold change) (liver): transferase ↑ x2.5 | TNF (ligand) superfamily, member 10 expression ↑ (fold change) (liver): member 10 ↑ x1.5 | TNF-α converting enzyme expression ↓ (fold change) (liver): enzyme ↓ x2 | δ sleep inducing peptide, immunoreactor expression ↑ (fold change) (liver): ↑ x2.5 | PP 1, regulatory (inhibitor) subunit 5 AvgDiff (pituitary, 0.1 mg/animal/14 day, control 20): 75 | SSTR3 AvgDiff (pituitary, 0.1 mg/animal/14 day, control 22): 57 | Cell division cycle 25B AvgDiff (pituitary, 0.1 mg/animal/14 day, control 40): 162 | GLUR 2, precursor AvgDiff (pituitary, 0.1 mg/animal/14 day, control 42): 59 | BCL2-antagonist of cell death AvgDiff (pituitary, 0.1 mg/animal/14 day, control 44): 69 | PTP, receptor type, T AvgDiff (pituitary, 0.1 mg/animal/14 day, control 58): 101 | Putative Ca++ transporting ATPase AvgDiff (pituitary, 0.1 mg/animal/14 day, control 61): 101 | K+ voltage-gated channel, Shab-related subfamily, member 1 AvgDiff (pituitary, 0.1 mg/animal/14 day, control 66): 22 | PI-3-kinase, catalytic, α polypeptide AvgDiff [1]: 21 | RAB 5C, member RAS oncogene family AvgDiff [1]: 162 | Cdk inhibitor 2C (p18, inhibits CDK4) AvgDiff (pituitary, 0.1 mg/animal/14 day, control 81): 184 | ATPase, Na+/K+ transporting, α 2 (+) polypeptide AvgDiff (pituitary, 0.1 mg/animal/14 day, control 86): 184 | PI-3-kinase, catalytic, δ polypeptide AvgDiff [2]: 34 | S-phase response (cyclin-related) AvgDiff [2]: 129 | PLC, γ 1 (formerly subtype 148) AvgDiff (pituitary, 0.1 mg/animal/14 day, control 111): 40 | SHB adaptor protein (a Src homology 2 protein) AvgDiff (pituitary, 0.1 mg/animal/14 day, control 112): 38 | PI transfer protein, β AvgDiff (pituitary, 0.1 mg/animal/14 day, control 125): 42 | ATPase, H+/K+ exchanging, α polypeptide AvgDiff (pituitary, 0.1 mg/animal/14 day, control 128): 20 | Phosphatase and tensin homolog (mutated in multiple advanced cancers 1) AvgDiff (pituitary, 0.1 mg/animal/14 day, control 129): 36 | K+ channel, subfamily K, member 3 (TASK) AvgDiff (pituitary, 0.1 mg/animal/14 day, control 132): 26 | Rab geranylgeranyltransferase, α subunit AvgDiff (pituitary, 0.1 mg/animal/14 day, control 164): 104 | MAPKKK5 AvgDiff (pituitary, 0.1 mg/animal/14 day, control 171): 278 | Neuroblastoma-amplified protein AvgDiff (pituitary, 0.1 mg/animal/14 day, control 178): 237 | Cyclin D3 AvgDiff (pituitary, 0.1 mg/animal/14 day, control 187): 338 | Cdk inhibitor 2D (p19, inhibits CDK4) AvgDiff [3]: 99 | Cyclin F AvgDiff [3]: 74 | BCL2-associated athanogene AvgDiff (pituitary, 0.1 mg/animal/14 day, control 216): 318 | Core-binding factor, runt domain, α subunit 2; translocated to, 1; cyclin D-related AvgDiff [4]: 491 | Forkhead box H1 AvgDiff [4]: 117 | Rab geranygeranyltransferase, β subunit AvgDiff (pituitary, 0.1 mg/animal/14 day, control 230): 284 | Bax gamma AvgDiff (pituitary, 0.1 mg/animal/14 day, control 258): 326 | ATPase, Na+/K+ transporting, β 3 polypeptide AvgDiff (pituitary, 0.1 mg/animal/14 day, control 292): 610 | IP-4-phosphatase, type 1, isoform b AvgDiff (pituitary, 0.1 mg/animal/14 day, control 296): 177 | BCL2/adenovirus E1B 19kD-interacting protein 3 AvgDiff (pituitary, 0.1 mg/animal/14 day, control 342): 458 | Dual specificity phosphatase 8 AvgDiff (pituitary, 0.1 mg/animal/14 day, control 493): 170 | Forkhead box O3A AvgDiff (pituitary, 0.1 mg/animal/14 day, control 497): 257 | Programmed cell death 6 AvgDiff (pituitary, 0.1 mg/animal/14 day, control 504): 635 | PKC inhibitor AvgDiff (pituitary, 0.1 mg/animal/14 day, control 2,351): 3,333 and 3,332 | ATPase, Na+/K+ transporting, β1 polypeptide expression ↑ (fold change) (spleen): polypeptide ↑ x2.5 | Adrenergic, α-2C-, receptor expression ↓ (fold change) (spleen): ↓ x2 | Arginine vasopressine receptor 1B expression ↑ (fold change) (spleen): receptor 1B ↑ x2 | Bcl-2 binding component 3 expression ↑ (fold change) (spleen): ↑ x2.5 | Ca++ channel, voltage-dependent, α2/δ subunit 1 expression ↑ (fold change) (spleen): α2/δ subunit 1 ↑ x2 | Ca++ channel, voltage-dependent, α2/δ subunit 2 expression ↑ (fold change) (spleen): ↑ x1.5
